Source: ChEMBL document CHEMBL2203020, “Development of Synthetic Aminopeptidase N/CD13 Inhibitors to Overcome Cancer Metastasis and Angiogenesis” (ACS Med Chem Lett, 2012)
Activity calls are given as the source filed them. No cut-off for these calls is given here.

Legend:
Aminopeptidase N [1] = molecular target: T1, Aminopeptidase N (Sus scrofa, UniProt P15145); assay: Inhibition of APN in porcine kidney microsome assessed as inhibition of L-Leu-p-nitroanilide substrate hydrolysis incubated for 5 mins before substrate addition by UV-Vis spectrophotometric analysis; format: microsomes
T1 sequence (P15145 whole entry): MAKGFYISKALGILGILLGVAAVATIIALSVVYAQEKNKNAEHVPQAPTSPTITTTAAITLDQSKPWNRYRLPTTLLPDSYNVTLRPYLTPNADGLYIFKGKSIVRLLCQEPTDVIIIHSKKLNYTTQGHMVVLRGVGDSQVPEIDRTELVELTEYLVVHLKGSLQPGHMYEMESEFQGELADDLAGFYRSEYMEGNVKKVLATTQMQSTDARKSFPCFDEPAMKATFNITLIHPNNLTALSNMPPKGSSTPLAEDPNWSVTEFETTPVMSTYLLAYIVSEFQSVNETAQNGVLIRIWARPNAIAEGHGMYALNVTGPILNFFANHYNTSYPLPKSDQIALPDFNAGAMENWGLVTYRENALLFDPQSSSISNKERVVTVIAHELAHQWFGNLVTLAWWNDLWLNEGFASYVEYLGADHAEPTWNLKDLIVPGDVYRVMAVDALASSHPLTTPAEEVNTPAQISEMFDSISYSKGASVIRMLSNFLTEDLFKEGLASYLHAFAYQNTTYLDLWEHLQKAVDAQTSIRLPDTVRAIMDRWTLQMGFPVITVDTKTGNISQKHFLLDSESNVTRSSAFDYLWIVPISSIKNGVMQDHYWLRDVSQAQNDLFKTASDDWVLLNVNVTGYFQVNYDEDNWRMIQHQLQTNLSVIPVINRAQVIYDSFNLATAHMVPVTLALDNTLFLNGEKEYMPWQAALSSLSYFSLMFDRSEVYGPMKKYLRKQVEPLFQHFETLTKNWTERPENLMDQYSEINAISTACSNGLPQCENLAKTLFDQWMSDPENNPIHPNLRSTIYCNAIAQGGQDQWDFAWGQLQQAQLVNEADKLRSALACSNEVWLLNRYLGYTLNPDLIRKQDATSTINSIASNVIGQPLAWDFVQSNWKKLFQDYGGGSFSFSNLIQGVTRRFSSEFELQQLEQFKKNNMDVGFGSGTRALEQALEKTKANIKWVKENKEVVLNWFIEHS

B16-BL6 [2] = assay: Antimetastatic activity against mouse B16-BL6 cells xenografted in C57BL/6 mouse assessed as decrease in number of pulmonary metastatic colonies at 100 mg/kg/day, ip administered for 13 days measured on day 14; format: functional, organism-based
[3] = Cytotoxicity against mouse B16-BL6 cells assessed as cell growth inhibition after 24 hrs by MTT assay; format: cell-based
B16-BL6 [4] = assay: Antiangiogenic activity against mouse B16-BL6 cells xenografted in C57BL/6 mouse assessed as decrease in number of vessels oriented towards the tumor mass at 100 mg/kg/day, ip administered for 4 days measured on day 5 by dissecting microscopic analysis; format: functional, organism-based
Aminopeptidase N [5] = molecular target: T2, Aminopeptidase N (Mus musculus, UniProt P97449); assay: Inhibition of APN in mouse B16-BL6 cell surface assessed as inhibition of L-Leu-p-nitroanilide substrate hydrolysis incubated for 5 mins before substrate addition by UV-Vis spectrophotometric analysis
T2 sequence (P97449 whole entry): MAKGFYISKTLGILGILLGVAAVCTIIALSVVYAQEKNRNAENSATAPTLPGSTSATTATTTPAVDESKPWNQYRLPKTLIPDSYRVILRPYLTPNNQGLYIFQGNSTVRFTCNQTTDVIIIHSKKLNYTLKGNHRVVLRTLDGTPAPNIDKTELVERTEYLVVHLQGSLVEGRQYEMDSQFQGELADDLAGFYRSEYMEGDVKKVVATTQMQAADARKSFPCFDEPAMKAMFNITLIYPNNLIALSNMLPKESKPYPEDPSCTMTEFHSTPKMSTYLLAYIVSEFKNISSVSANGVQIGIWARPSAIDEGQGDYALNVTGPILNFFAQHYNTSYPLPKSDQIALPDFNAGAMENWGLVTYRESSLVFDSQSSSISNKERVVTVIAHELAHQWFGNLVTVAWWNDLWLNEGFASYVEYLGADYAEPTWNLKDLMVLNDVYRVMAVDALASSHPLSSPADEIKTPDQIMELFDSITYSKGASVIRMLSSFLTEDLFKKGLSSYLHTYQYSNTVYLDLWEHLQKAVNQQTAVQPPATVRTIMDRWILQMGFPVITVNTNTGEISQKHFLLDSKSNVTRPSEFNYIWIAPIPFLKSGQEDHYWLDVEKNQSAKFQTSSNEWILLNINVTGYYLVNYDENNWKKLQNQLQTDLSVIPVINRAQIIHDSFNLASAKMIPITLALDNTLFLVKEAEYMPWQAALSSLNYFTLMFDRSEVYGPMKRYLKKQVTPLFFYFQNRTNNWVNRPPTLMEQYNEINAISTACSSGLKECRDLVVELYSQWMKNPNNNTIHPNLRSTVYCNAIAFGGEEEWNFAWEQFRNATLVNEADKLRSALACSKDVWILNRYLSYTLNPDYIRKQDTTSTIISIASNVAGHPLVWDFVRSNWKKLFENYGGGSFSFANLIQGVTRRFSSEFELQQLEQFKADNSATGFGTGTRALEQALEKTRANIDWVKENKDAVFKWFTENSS

HUVEC = assay: Antiangiogenesis activity against HUVEC assessed as decrease in capillary tubular structure formation at 25 ug/ml after 8 hrs by microscopic analysis; format: functional, cell-based; conditions: Homo sapiens
ES2 [6] = assay: Inhibition of human ES2 cell invasion after 8 hrs by Matrigel invasion assay; format: functional, cell-based
ES2 [7] = assay: Inhibition of human ES2 cell migration at 150 uM by crystal violet staining based microscopic analysis; format: functional
[8] = Cytotoxicity against human ES2 cells assessed as cell growth inhibition rate at 50 ug/ml after 24 hrs by MTT assay; format: cell-based; conditions: read-out: GI
[9] = molecular target: 72 kDa type IV collagenase (Homo sapiens, UniProt P08253); assay: Inhibition of recombinant MMP-2 using succinylated gelatin as substrate incubated for 10 mins before addition of substrate measured after 60 mins by UV-Vis spectrophotometric analysis
[10] = Cytotoxicity against human ES2 cells assessed as cell growth inhibition rate at 5 ug/ml after 24 hrs by MTT assay; format: cell-based; conditions: read-out: GI
Aminopeptidase N [11] = molecular target: Aminopeptidase N (Homo sapiens, UniProt P15144); assay: Inhibition of APN in human ES2 cell surface assessed as inhibition of L-Leu-p-nitroanilide substrate hydrolysis incubated for 5 mins before substrate addition by UV-Vis spectrophotometric analysis
Aminopeptidase N (Homo sapiens, UniProt P15144), sequence (P15144 whole entry): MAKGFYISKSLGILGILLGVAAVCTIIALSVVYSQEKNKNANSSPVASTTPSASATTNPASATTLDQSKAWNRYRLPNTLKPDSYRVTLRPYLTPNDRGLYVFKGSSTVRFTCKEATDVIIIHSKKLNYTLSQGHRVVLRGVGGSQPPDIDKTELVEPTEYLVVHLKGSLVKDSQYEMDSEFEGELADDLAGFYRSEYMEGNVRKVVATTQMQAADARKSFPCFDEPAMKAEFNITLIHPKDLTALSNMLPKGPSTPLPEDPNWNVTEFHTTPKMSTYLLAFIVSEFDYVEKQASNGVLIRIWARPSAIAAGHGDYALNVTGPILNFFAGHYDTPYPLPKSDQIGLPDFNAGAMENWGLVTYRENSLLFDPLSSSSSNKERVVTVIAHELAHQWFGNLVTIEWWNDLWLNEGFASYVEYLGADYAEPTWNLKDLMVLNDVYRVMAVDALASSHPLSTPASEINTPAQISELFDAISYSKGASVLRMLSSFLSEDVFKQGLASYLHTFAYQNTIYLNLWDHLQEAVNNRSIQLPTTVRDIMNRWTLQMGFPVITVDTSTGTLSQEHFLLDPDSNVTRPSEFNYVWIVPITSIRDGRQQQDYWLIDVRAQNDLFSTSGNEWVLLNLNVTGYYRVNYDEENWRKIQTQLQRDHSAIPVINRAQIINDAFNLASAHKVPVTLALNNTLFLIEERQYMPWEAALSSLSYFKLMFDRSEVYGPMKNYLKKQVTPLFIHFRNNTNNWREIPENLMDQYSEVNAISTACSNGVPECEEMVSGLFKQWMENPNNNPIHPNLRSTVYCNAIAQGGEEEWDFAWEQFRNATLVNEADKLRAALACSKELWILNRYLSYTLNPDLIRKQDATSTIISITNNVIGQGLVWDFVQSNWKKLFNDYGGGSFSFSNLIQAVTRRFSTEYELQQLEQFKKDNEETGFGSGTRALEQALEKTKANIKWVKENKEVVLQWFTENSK

72 kDa type IV collagenase, sequence (P08253 whole entry): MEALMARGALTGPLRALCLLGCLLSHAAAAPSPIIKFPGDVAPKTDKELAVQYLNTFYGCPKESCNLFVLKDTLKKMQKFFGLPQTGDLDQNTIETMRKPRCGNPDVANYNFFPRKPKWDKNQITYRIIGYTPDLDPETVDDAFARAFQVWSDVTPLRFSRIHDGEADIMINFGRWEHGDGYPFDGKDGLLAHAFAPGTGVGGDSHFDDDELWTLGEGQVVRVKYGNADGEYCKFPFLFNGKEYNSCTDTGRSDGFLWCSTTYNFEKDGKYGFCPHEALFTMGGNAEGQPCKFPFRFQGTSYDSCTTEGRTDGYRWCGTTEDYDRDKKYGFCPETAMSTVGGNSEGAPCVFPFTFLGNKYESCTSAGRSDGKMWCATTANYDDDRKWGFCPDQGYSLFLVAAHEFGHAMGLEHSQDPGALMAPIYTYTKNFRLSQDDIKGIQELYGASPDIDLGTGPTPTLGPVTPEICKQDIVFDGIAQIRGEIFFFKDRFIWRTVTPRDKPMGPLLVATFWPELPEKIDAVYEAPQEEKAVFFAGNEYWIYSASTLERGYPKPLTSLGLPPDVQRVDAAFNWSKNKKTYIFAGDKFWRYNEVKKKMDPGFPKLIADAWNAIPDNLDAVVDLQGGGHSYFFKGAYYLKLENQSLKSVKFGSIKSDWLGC

| SMILES | IC50 (Aminopeptidase N [1]) [µM] | inhibition at 24 h, 50 ug/ml [8] [%] | IC50 [9] [µM] | inhibition at 24 h, 5 ug/ml [10] [%] | IC50 (Aminopeptidase N [11]) [µM] | other results |
| --- | --- | --- | --- | --- | --- | --- |
| CC(C)C[C@H](NC(=O)OCCCc1ccccc1)C(=O)NO | > 10 |  |  |  |  |  |
| O=C(NCCCc1ccccc1)N[C@H](C(=O)NO)c1ccccc1 | 2.2 |  |  |  |  |  |
| CC(C)C[C@H](NC(=O)Nc1cccc2ccccc12)C(=O)NO | 0.099 | 3.63 | > 1000 | < 1 | 0.48 | Activity (B16-BL6 [2]): Active; GI50 at 24 h [3]: > 500 µM; Activity (B16-BL6 [4]): Active; IC50 (Aminopeptidase N [5]): 2.26 µM; Activity (HUVEC): Active; inhibition (ES2 [6]): Dose-dependent effect; inhibition (ES2 [7]): Active |
| CC(C)C[C@H](NC(=O)Nc1ccccc1)C(=O)NO | 2.7 |  |  |  |  |  |
| O=C(NCCCCc1ccccc1)N[C@@H](Cc1ccccc1)C(=O)NO | 2.8 |  |  |  |  |  |
| CC(C)C[C@H](NC(=O)NCCCCc1ccccc1)C(=O)NO | 2.3 |  |  |  |  |  |
| CC(C)C[C@H](NC(=O)NCc1cccs1)C(=O)NO | 0.66 |  |  |  |  |  |
| CSCC[C@H](NC(=O)NCCCc1ccccc1)C(=O)NO | 7 |  |  |  |  |  |
| CC[C@H](C)[C@H](NC(=O)NCCCCc1ccccc1)C(=O)NO | > 10 |  |  |  |  |  |
| O=C(NCc1ccccc1)N[C@H](C(=O)NO)c1ccccc1 | 0.98 |  |  |  |  |  |
| CC(C)C[C@H](NC(=O)NCc1cccc2ccccc12)C(=O)NO | 0.05 | 6.67 | 545 | < 1 | 0.42 | Activity (B16-BL6 [2]): Active; GI50 at 24 h [3]: > 500 µM; Activity (B16-BL6 [4]): Active; IC50 (Aminopeptidase N [5]): 1.82 µM; Activity (HUVEC): Active; inhibition (ES2 [6]): Dose-dependent effect; inhibition (ES2 [7]): Active |
| CC(C)C[C@H](NC(=O)NCCCc1ccccc1)C(=O)NO | 3.4 |  |  |  |  |  |
| O=C(NCCCCc1ccccc1)N[C@H](C(=O)NO)c1ccccc1 | 5.5 |  |  |  |  |  |
| COc1ccc(NC(=O)N[C@@H](CC(C)C)C(=O)NO)cc1 | 0.57 | 6.85 | > 1000 | < 1 | 6.4 |  |
| COc1cccc(CNC(=O)N[C@@H](CC(C)C)C(=O)NO)c1 | 0.29 | < 1 | > 1000 | < 1 | 0.79 | Activity (B16-BL6 [2]): Active; GI50 at 24 h [3]: > 500 µM; Activity (B16-BL6 [4]): Active; IC50 (Aminopeptidase N [5]): 5.61 µM; Activity (HUVEC): Active; inhibition (ES2 [6]): Dose-dependent effect; inhibition (ES2 [7]): Active |
| O=C(NCc1ccc(F)cc1)N[C@H](C(=O)NO)c1ccccc1 | 5 |  |  |  |  |  |

| SMILES | IC50 (Aminopeptidase N [1]) [µM] | inhibition at 24 h, 50 ug/ml [8] [%] | IC50 [9] [µM] | inhibition at 24 h, 5 ug/ml [10] [%] | IC50 (Aminopeptidase N [11]) [µM] | other results |
| --- | --- | --- | --- | --- | --- | --- |
| CC(C)C[C@H](NC(=O)NCc1ccco1)C(=O)NO | 2.3 |  |  |  |  |  |
| CC(C)C[C@H](NC(=O)NCc1ccc(F)cc1)C(=O)NO | 0.73 | 11.9 | > 1000 | < 1 | 0.91 |  |
| Cc1ccc(CNC(=O)N[C@H](C(=O)NO)c2ccccc2)cc1 | 1.64 |  |  |  |  |  |
| Cc1ccc(NC(=O)N[C@@H](CC(C)C)C(=O)NO)cc1 | 0.33 | 1.78 | 573 | < 1 | 0.94 | inhibition (ES2 [6]): Dose-dependent effect; inhibition (ES2 [7]): Active |
| COc1ccc(CNC(=O)N[C@H](C(=O)NO)c2ccccc2)cc1 | 1.03 |  |  |  |  |  |
| CC(C)C[C@H](NC(=O)Cc1ccccc1)C(=O)NO | > 10 |  |  |  |  |  |
| O=C(Nc1ccccc1)N[C@H](C(=O)NO)c1ccccc1 | 5.9 |  |  |  |  |  |
| CC(C)C[C@H](NC(=O)Nc1ccc(-c2ccccc2)cc1)C(=O)NO | 2.1 |  |  |  |  |  |
| COc1ccccc1CNC(=O)N[C@@H](CC(C)C)C(=O)NO | 0.57 | 3.29 | > 1000 | < 1 | 1.1 |  |
| CC(C)C[C@H](NC(=O)NCc1cccc(F)c1)C(=O)NO | 0.69 | 2.81 | > 1000 | < 1 | 3 |  |
| COc1ccc(CNC(=O)N[C@@H](CC(C)C)C(=O)NO)cc1 | 0.83 | < 1 | > 1000 | < 1 | 6.9 |  |
| O=C(Nc1ccc(F)cc1)N[C@H](C(=O)NO)c1ccccc1 | 9.9 |  |  |  |  |  |
| Cc1ccc(CNC(=O)N[C@@H](CC(C)C)C(=O)NO)cc1 | 0.41 | 1.83 | > 1000 | < 1 | 1.5 |  |
| O=C(NCCc1ccccc1)N[C@H](C(=O)NO)c1ccccc1 | 1.9 |  |  |  |  |  |
| CC(C)C[C@H](NC(=O)Nc1ccc(F)cc1)C(=O)NO | 2.5 |  |  |  |  |  |
